Reference: patent US5614192A, “T cell receptor peptides as therapeutics for immune-related disease” (Connective Therapeutics, Inc., priority 1993, dated 1997)

Experiments:
[1] = test system: T cell lines derived from rats protected from EAE; assay: Proliferation of LN cells and T cell lines from rats protected by TCR Vβ8 peptide (Table 12); format: cell-based, rat
T cell immunity = T cell immunity / DH response induced by peptide; format: in vivo; conditions: Lewis rats
From the text: Immunogenicity of peptides useful in the present invention can be screened by well-known methods, such as use of a DH response in an animal. In such a response, an animal is "sensitized" by injection of an appropriate dose of an antigen, typically subcutaneously (SC), frequently with an adjuvant, such as complete Freund's adjuvant (CFA). Generally about 5-15 days later, the response is "elicited" by challenging the animal, typically intradermally (ID), with an appropriate dose of the antigen, typically in saline or other buffer. The response is assessed 24-48 hours later. […]
The desired peptides, with sequences determined as described above, are prepared using standard synthesis techniques including solution and solid phase sequential amino acid conjugation and recombinant production in prokaryotic or eukaryotic hosts. Verification that the peptide prepared is immunogenic can easily be determined using a DH reaction in an animal (e.g., mouse or rat), as described above. […] The ear swelling response, measured 24 or 48 hours after challenge, serves as a simple and reliable measure of the presence of T cell-mediated immunity to the peptide.

TCR Vβ8(39-59) peptide = format: binding, rat
EAE [2] = assay: Prevention, suppression and treatment of EAE with TCR Vβ8-39-59 peptide (Table 25); format: in vivo, Lewis rats; conditions: peptide/CFA s.q.
EAE [3] = assay: Clinical EAE in rats treated with TCR Vβ8(39-59) before or after onset (Table 22); format: in vivo; conditions: Exp. 2; control TCR peptide, day 13
Method: The ability of the TCR Vβ8(39-59) given either SC (in adjuvant) or ID (in saline) to disrupt the disease process when given at various times after induction of EAE with GPBP was tested (Table 22). […] In both cases, with both routes of injection of the peptide, there was a significant reduction in the duration of the disease, though not in the severity or time of onset. The efficacy of the peptide given in saline via the ID route is of particular importance to human therapy, as it is preferred to SC injection in adjuvant.
In Experiment 2, the time of ID administration of the TCR peptide was varied, as was the dose. […] A delay in onset of the disease was also observed. Furthermore, the percentage of animals showing signs of the disease decreased. A larger dose of the peptide (200 μg) appeared less efficacious than the lower dose, possibly due to a short-term overload of the peptide which could have comprised the immune response generated against the TCR. Treatment with a similarly sized peptide corresponding to an irrelevant TCR had no effect on onset, severity or incidence of EAE, but may have reduced the duration somewhat (last line of Table 22).

[4] = test system: lymph node cells and Vβ8-44-54 selected T cell line
DTH response = assay: Delayed hypersensitivity responses to TCR peptides, ear swelling (Table 26); format: in vivo, Lewis rats
EAE [5] = assay: Prevention and suppression of EAE by immunization with TCR Vβ8(39-59) (Table 17); format: in vivo, Lewis rats; conditions: 100 μg peptide/CFA day 0, Gp-S49S (100 μg) challenge day 0
EAE [6] = assay: Prevention of EAE by immunization with TCR peptide (Example VI); format: in vivo, Lewis rats; conditions: for protection from EAE: Lewis rats
From the text: EAE is a well-recognized rat model of the human autoimmune disease, multiple sclerosis. […] In this model, the disease is induced by injecting the subject rat with an encephalitogenic form of myelin basic protein, such as, for example, guinea pig basic protein (GPBP) or a synthetic peptide that corresponds to residues 72-89 of GPBP (GPBP(72-89)). Injection of either of these peptides in complete Freund's adjuvant (CFA) induces encephalitogenic T cell clones that utilize preferentially the rat homologs of mouse TCR Vα2 and Vβ8 genes (Chou, Y. K., et al., J. Neurosci. Res. 22:181-187 (1989); Burns, F. R., et al., J. Exp. Med. 169:27-39 (1989)).
^1 EAE was induced by SC challenge with 50 μg GPBP + 400 μg
^2 Rats were injected SC with either: (1) 100 μg of the TCR peptid
^3 Values represent the mean of the maximum severity of EAE. 0, no

LNC and T cell lines = assay: T cell proliferation after treatment of EAE with TCR Vβ8 39-59/CFA (Table 27); format: cell-based, rats
Method: Lymphocyte Proliferation: Activation of T cells was measured by ^3 H-Tdy uptake. 500,000 lymph node cells or 20,000 line cells in the presence of 1 million irradiated thymic accessory cells were incubated with culture medium and antigens in microtiter wells for 18 hours prior to the addition of 0.5 μBq labeled thymidine. The cell cultures were harvested onto glass fiber filters and counted by liquid scintillation techniques. Mean CPM were calculated from triplicate cultures. Standard deviations (SD) from replicate cultures varied <10% from the mean value.
^a Treated rats were injected s.q. with 50 μg TCR Vβ839-59
^b LW cells collected after the untreated group recovered from EAE

[7] = 100 μg peptide/CFA SC 30 days before GPBP/CFA

## APGGTLQQLFYSFNVGQSLF [TCR Vβ14 peptide, control peptide, residues 39-59 of rat TCR homologous to mouse Vβ14, reference compound]
[1]; 1st value column (head not given; LN cells of protected rats)
  T Cell Proliferation: 10 cpm × 10^-3
[1]; 2nd value column (head not given, TCR Vβ8(39-59)-selected line)
  T Cell Proliferation: 2 cpm × 10^-3
T cell immunity
  induction of T cell immunity: did induce immunity
TCR Vβ8(39-59) peptide
  absorbance of serum on TCR Vβ8(39-59) peptide (A405): 0.02±0.01 units
EAE [2]; Day 0
  Duration: 6.4 ± 0.3 days
  EAE/TOTAL: 6/6
  Max Clin. Signs: 3.3 ± 0.5
  Onset: 12
EAE [2]; Day -40
  Duration: 6.1 ± 0.6 days
  EAE/TOTAL: 8/8
  Max Clin. Signs: 3.2 ± 0.3
  Onset: 12
EAE [2]; Day onset
  Duration: 6.0 ± 1.5 days
  EAE/TOTAL: 4/4
  Max Clin. Signs: 3.0 ± 0.4
  Onset: 12
EAE [3]
  Day of Onset: 13.7 ± 0.5
  Disease Duration: 3.5 ± 0.5
  Disease Incidence: 6/6
  Disease Severity: 2.5 ± 0.8
[4]
  Response of Lymph Node Cells: 18 ± 2
  Response of T Cell Line: 9 ± 1
DTH response; GP-BP/CFA immunized rats, ear test Day 12 (EAE onset)
  48 Hour DTH Response: 11 ± 4
DTH response; Normal or saline/CFA rats, ear test Day 12
  48 Hour DTH Response: 10 ± 4
DTH response; TCR Vβ8 peptide/CFA immunized rats, ear test Day 30
  48 Hour DTH Response: 9 ± 3
DTH response; TCR Vβ814 (so in the source) peptide/CFA immunized rats, ear test Day 30
  48 Hour DTH Response: 40 ± 4
EAE [5]
  Clinical Score: 2.9
EAE [6]; [7]
  EAE Day of Onset: 14 ± 2
  EAE Duration: 6 ± 2
  EAE Severity (mean of maximum severity, scale 0-4): 3.1 ± 0.3
EAE [6]; 100 μg peptide/CFA SC 30 days before challenge with 50 μg GPBP/CFA
  EAE Incidence: 4/4
EAE [6]
  protection from EAE: did not confer protection against EAE
EAE [6]; listed as Vβ14(39-59)
  protection from EAE: did not provide protection from EAE
LNC and T cell lines; Treated rats, line Vβ8/1st
  Proliferation: 8 ± 2 CPM/1000
LNC and T cell lines; Untreated rats (GPBP/CFA only), LNC
  Proliferation: 29 ± 4 CPM/1000
LNC and T cell lines; Untreated rats, line BP/1st
  Proliferation: 17 ± 2 CPM/1000
LNC and T cell lines; Untreated rats, line Vβ8/1st
  Proliferation: 11 ± 2 CPM/1000
LNC and T cell lines; Untreated rats, line Vβ14/1st
  Proliferation: 25 ± 6 CPM/1000
